In one series the target is T1, Glucocorticoid receptor (Homo sapiens, UniProt P04150).
T1 sequence (P04150 whole entry): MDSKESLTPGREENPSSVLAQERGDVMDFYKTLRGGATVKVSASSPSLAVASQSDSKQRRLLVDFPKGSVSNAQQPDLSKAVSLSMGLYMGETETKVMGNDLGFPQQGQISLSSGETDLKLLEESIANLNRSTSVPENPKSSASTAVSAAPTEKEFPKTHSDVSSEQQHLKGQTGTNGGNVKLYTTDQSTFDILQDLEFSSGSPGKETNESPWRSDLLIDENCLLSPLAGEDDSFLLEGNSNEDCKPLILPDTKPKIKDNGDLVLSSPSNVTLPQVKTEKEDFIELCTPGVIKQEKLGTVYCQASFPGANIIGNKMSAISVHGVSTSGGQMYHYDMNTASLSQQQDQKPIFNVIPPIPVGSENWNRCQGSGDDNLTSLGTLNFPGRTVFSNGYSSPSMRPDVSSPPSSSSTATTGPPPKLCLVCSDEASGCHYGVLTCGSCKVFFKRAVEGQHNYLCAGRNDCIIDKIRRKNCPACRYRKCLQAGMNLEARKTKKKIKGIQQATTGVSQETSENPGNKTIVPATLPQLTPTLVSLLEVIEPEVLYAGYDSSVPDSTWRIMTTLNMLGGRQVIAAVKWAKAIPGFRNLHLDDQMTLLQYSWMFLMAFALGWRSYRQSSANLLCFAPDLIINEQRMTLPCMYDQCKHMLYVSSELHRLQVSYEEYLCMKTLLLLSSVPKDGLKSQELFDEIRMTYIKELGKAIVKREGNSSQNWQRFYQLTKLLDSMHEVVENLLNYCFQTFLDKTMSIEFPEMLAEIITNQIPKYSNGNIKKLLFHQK
The series is described as follows: Displacement of Dexamethasone from human glucocorticoid receptor by fluorescence polarization assay. Background: Fluorescence polarisation rises when a labelled molecule tumbles more slowly, as on binding a larger partner.

The target of another series is T2, Progesterone receptor (Homo sapiens, UniProt P06401).
T2 sequence (P06401 whole entry): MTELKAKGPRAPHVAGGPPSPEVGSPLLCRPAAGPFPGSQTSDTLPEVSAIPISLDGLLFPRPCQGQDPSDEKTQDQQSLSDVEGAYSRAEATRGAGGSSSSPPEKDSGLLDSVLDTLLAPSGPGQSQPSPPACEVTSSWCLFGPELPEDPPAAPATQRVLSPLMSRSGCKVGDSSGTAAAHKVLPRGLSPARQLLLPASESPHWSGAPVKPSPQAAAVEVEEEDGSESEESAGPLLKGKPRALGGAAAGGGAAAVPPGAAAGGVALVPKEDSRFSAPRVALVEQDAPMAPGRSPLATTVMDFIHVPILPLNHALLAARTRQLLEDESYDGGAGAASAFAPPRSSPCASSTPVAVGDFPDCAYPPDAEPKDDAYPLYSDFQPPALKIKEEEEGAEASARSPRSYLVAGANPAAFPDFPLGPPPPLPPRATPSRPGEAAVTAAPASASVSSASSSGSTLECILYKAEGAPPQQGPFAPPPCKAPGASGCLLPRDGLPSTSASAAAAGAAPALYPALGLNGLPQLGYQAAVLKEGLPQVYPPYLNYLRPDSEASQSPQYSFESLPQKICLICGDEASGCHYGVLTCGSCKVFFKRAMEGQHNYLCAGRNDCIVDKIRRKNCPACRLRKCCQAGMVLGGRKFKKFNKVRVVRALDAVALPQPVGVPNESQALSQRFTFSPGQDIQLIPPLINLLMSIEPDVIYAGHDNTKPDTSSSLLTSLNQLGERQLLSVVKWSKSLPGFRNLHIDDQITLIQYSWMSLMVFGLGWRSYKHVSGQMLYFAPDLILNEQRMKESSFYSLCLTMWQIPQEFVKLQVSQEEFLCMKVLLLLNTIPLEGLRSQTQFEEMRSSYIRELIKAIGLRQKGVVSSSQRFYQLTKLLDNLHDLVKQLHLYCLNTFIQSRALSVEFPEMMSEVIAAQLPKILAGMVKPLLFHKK
The series is described as follows: Displacement of RU486 from human progesterone receptor by fluorescence polarization assay.

Series [1] is described as follows: Metabolic stability in human liver microsomes. The class given is ADME, Microsome. A general note: Liver microsomes are a subcellular fraction often used to study metabolism.
Series [2] has as its target T3, Mineralocorticoid receptor (Homo sapiens, UniProt P08235).
T3 sequence (P08235 whole entry): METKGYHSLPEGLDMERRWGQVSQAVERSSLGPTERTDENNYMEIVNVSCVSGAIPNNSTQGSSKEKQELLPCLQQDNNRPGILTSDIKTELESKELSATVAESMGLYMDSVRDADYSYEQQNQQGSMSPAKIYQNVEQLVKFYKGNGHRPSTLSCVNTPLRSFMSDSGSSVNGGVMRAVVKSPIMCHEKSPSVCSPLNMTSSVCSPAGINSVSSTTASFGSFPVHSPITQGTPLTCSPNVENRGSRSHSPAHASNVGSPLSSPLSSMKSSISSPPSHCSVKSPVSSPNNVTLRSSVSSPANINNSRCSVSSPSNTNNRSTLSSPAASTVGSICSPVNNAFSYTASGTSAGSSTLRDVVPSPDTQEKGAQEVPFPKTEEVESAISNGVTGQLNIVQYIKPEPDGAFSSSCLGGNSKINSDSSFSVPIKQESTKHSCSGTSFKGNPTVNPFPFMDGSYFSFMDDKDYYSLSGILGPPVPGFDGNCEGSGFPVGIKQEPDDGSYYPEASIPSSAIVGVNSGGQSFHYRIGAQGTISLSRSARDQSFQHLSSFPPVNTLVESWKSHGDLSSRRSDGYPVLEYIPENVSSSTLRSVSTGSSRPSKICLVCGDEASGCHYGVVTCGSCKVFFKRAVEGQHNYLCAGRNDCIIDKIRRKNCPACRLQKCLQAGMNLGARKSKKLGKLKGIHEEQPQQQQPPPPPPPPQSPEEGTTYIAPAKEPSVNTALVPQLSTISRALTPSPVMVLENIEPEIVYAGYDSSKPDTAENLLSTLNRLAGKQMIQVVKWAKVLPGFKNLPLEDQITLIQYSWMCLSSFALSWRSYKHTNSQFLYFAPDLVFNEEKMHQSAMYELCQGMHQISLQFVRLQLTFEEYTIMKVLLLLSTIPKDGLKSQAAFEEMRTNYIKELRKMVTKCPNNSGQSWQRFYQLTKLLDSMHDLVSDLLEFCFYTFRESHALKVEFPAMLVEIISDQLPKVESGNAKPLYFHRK
The experiment in a line: Displacement of Dexamethasone from human mineralocorticoid receptor by fluorescence polarization assay.

The next series concerns the target T4, Estrogen receptor (Homo sapiens, UniProt P03372).
T4 sequence (P03372 whole entry): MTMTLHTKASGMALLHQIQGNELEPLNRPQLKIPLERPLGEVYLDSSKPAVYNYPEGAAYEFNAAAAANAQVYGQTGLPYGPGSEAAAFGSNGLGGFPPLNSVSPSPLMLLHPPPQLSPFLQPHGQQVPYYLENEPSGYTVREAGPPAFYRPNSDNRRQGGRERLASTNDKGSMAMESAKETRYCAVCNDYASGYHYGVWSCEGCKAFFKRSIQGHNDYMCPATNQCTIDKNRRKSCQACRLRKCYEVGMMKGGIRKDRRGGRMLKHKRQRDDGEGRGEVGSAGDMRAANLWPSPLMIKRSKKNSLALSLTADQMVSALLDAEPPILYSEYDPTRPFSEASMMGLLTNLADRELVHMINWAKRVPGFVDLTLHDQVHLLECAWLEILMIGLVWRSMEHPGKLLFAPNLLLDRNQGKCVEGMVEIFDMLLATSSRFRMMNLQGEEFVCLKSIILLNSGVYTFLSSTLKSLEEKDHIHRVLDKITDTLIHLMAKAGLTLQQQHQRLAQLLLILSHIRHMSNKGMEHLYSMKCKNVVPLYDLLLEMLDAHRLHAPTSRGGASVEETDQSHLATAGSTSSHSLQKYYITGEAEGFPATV
The series is described as follows: Displacement of fluormone from human estrogen receptor by fluorescence binding assay.

The test system of series [3] is Fibroblast. The experiment in a line: Inhibition of IL1-induced IL6 production in foreskin fibroblasts after 24 hrs. The class given is functional, cell-based.
Series [4] deals with Fibroblast. The series is described as follows: Inhibition of IL1-induced IL6 production in foreskin fibroblasts at 2000 nM after 24 hrs relative to Dexamethasone. It is filed as functional, Homo sapiens.

SMILES strings stand for the structures. The source made the active and inactive calls.

Consider `C=CCOC(C)C1=CC(C)(C)Nc2ccc(-c3ccccc3OC)cc21` (stereo not drawn), for which the IC50 (as a rule, the point on the concentration scale where inhibition reaches its midpoint) at Glucocorticoid receptor is 116 nM; on Progesterone receptor it was 480 nM.
With `COc1ccccc1-c1ccc2c(c1)C(C(C)OCCc1ccc(Cl)cc1)=CC(C)(C)N2` (stereo not drawn), the IC50 is 185 nM at Glucocorticoid receptor and 930 nM at Progesterone receptor.
For `C=CCOC(CC)C1=CC(C)(C)Nc2ccc(-c3ccccc3OC)cc21` (stereo not drawn) the same measures were 355 nM and 330 nM.
With `C/C=C/COC(C)C1=CC(C)(C)Nc2ccc(-c3ccccc3OC)cc21` (stereo not drawn), the results for the IC50 at Glucocorticoid receptor and on Progesterone receptor were 210 nM and 1300 nM, respectively.
Consider `C=CCOC(Cc1ccccc1)C1=CC(C)(C)Nc2ccc(-c3ccccc3OC)cc21` (stereo not drawn), for which the results for the IC50 on Glucocorticoid receptor and on Progesterone receptor were more than 2000 nM and 1200 nM, respectively.
On to `C=CCOC(CCC)C1=CC(C)(C)Nc2ccc(-c3ccccc3OC)cc21` (stereo not drawn), for which the IC50 on Glucocorticoid receptor and on Progesterone receptor was more than 2000 nM throughout.
In the case of `COc1ccccc1-c1ccc2c(c1)C(C(C)OCCc1cccc(Cl)c1)=CC(C)(C)N2` (stereo not drawn), the IC50 at Glucocorticoid receptor came out at 275 nM; on Progesterone receptor it was 1900 nM.
Turning to `COc1ccc(F)cc1-c1ccc2c(c1)C(C(C)OCCc1ccccc1)=CC(C)(C)N2` (stereo not drawn), the IC50 came out at 195 nM on Glucocorticoid receptor and 1300 nM on Progesterone receptor.
For `C=CCOC(CC=C)C1=CC(C)(C)Nc2ccc(-c3ccccc3OC)cc21` (stereo not drawn) the same measures were more than 2000 nM and 440 nM.
On the same counts, the results for `C=CCOC(C1=CC(C)(C)Nc2ccc(-c3ccccc3OC)cc21)C(C)C` (stereo not drawn) are 710 nM and 950 nM.
On the same counts, the results for `COc1ccccc1-c1ccc2c(c1)C(C(C)OCCCc1ccccc1)=CC(C)(C)N2` (stereo not drawn) are 260 nM and more than 2000 nM.
In the case of `C=CCOC(C1=CC(C)(C)Nc2ccc(-c3ccccc3OC)cc21)c1ccccc1` (stereo not drawn), the IC50 at Glucocorticoid receptor and on Progesterone receptor was more than 2000 nM each time.
For the compound `COc1ccccc1-c1ccc2c(c1)C(C(C)OC/C=C/c1ccccc1)=CC(C)(C)N2` (stereo not drawn), the figures for the IC50 on Glucocorticoid receptor and at Progesterone receptor were 980 nM and more than 2000 nM, respectively.
For `COc1ccccc1-c1ccc2c(c1)C(C(C)OCCC1CCCCC1)=CC(C)(C)N2` (stereo not drawn) the same measures were 400 nM and more than 2000 nM.
In the case of `C=CCOC(C)C1=CC(C)(C)Nc2ccc(-c3cc(F)ccc3OC)cc21` (racemic), the IC50 on Glucocorticoid receptor was found to be 34 nM; in series [2] it was 970 nM; on Progesterone receptor it was 451 nM. Besides, the half-life (usually the time needed for the level to fall by half in the phase considered) in series [1] came to 6 min.
With `C=CCSCC1=CC(C)(C)Nc2ccc(-c3cc(F)ccc3OC)cc21`, the IC50 (at Estrogen receptor; in series [2]) was more than 2000 nM each time. The same compound had a half-life in series [1] of 12 min. Further, in the series on Fibroblast [3] (Homo sapiens), the outcome was inactive.
In the case of `COc1ccccc1-c1ccc2c(c1)C(C(C)OCC=C(C)C)=CC(C)(C)N2` (stereo not drawn), the IC50 on Glucocorticoid receptor came to 395 nM; on Progesterone receptor, 980 nM.
On to `C=CCOC(C)C1=CC(C)(C)Nc2ccc(-c3cc(F)ccc3OC)cc21.Cl` (single isomer, unassigned; (-)), for which the IC50 at Glucocorticoid receptor is 110 nM; in series [2], more than 2000 nM; in the series with Fibroblast [3] (Homo sapiens, Fibroblast, 24 h) it was 260 nM; at Progesterone receptor it was 620 nM. Moreover, in series [1], the half-life was found to be 5 min. Moreover, in the series with Fibroblast [4], the Inhibition (commonly the share of the control response that was lost under treatment) was 46%.
Take `C=CC[S+]([O-])CC1=CC(C)(C)Nc2ccc(-c3ccccc3OC)cc21` (stereo not drawn): the IC50 on Glucocorticoid receptor and on Progesterone receptor was more than 2000 nM in each case.
Take `Br.C=CCOC(C)C1=CC(C)(C)Nc2ccc(-c3cc(F)ccc3OC)cc21` (single isomer, unassigned; (+)): the IC50 on Glucocorticoid receptor is 40 nM; on Estrogen receptor, more than 2000 nM; in series [2] it was 1100 nM; in the series on Fibroblast [3] (fibroblast) it was 170 nM; at Progesterone receptor it was 170 nM. In series [1], this compound showed a half-life of 6 min. Further, testing at 2 µM in the series with Fibroblast [4] (Homo sapiens, Fibroblast, 24 h) gave an inhibition of 28%.
For `COc1ccccc1-c1ccc2c(c1)C(C(C)OC)=CC(C)(C)N2` (stereo not drawn), the IC50 is 1060 nM at Glucocorticoid receptor and 540 nM at Progesterone receptor.
On the same counts, the results for `C=CCSC(C)C1=CC(C)(C)Nc2ccc(-c3ccccc3OC)cc21` (stereo not drawn) are 116 nM and 600 nM.
In the case of `COc1ccc(F)cc1-c1ccc2c(c1)C(CSCCc1ccccc1)=CC(C)(C)N2`, the IC50 on Estrogen receptor is more than 2000 nM. In series [1], the half-life was found to be 17 min. The outcome in the series with Fibroblast [3] (Homo sapiens) was inactive.
Consider `COc1ccccc1-c1ccc2c(c1)C(C(C)OCCc1ccccc1Cl)=CC(C)(C)N2` (stereo not drawn), for which the values for the IC50 at Glucocorticoid receptor and at Progesterone receptor were 290 nM and more than 2000 nM, respectively.
For `COc1ccccc1-c1ccc2c(c1)C(C(C)OCCc1ccccc1)=CC(C)(C)N2` (stereo not drawn) the same measures were 404 nM and more than 2000 nM.
Regarding `C=CCOC(CCc1ccccc1)C1=CC(C)(C)Nc2ccc(-c3ccccc3OC)cc21` (stereo not drawn), the IC50 at Glucocorticoid receptor is more than 2000 nM; on Progesterone receptor, 1000 nM.
On the same counts, the results for `CC/C=C/COC(C)C1=CC(C)(C)Nc2ccc(-c3ccccc3OC)cc21` (stereo not drawn) are 565 nM and 1600 nM.

The values are drawn from ChEMBL document CHEMBL1146252, “Discovery and SAR study of novel dihydroquinoline-containing glucocorticoid receptor agonists” (Bioorg Med Chem Lett, 2007).
